Measurements from US12285464B2, “Therapeutic targets involved in the progression of nonalcoholic steatohepatitis (NASH)” (The Trustees of Columbia University in the City of New York, priority 2016, dated 2025).

How the values were obtained:
[1] = system: PCSK9; conditions: modified stable siRNA, clinical trials; cited from earlier work
[2] = system: Taz; assay: siTaz treatment of AML12 hepatocytes (Ihh mRNA, immunoblot, ELISA); assay type: cell-based, mouse
Excerpt: To explore the possibility that TAZ-induced Ihh is secreted by hepatocytes and activates HSCs, an in vitro model using AML12 cells, a non-cancerous mouse hepatocyte cell line was utilized (Dumenco et al., 1995), along with primary murine HSCs. Consistent with the in vivo data, siTaz treatment of AML12 hepatocytes lowered cellular Ihh mRNA in the cells and Ihh protein in both the cells and media (FIGS. 8A-C). In the next experiments, conditioned medium (CM) from control or Taz-silenced AML12 cells was utilized, as well as medium not exposed to cells (non-CM), to primary murine hepatic stellate cells (HSCs). […] Most importantly, CM from TAZ-silenced hepatocytes lowered the levels these mRNAs and protein compared to CM from shCon-treated hepatocytes (FIG. 8D). […] Finally, to make a more direct link between TAZ-induced Ihh in hepatocytes and activation of HSCs, Ihh was restored in siTaz-treated hepatocytes by Ihh transfection and then analyzed to determine whether this lessened the suppressive effect of CM from these cells on the expression of the fibrosis-related genes in HSCs. Transfection of TAZ-silenced hepatocytes with Ihh led to a level of Ihh in the CM that was similar to that in the CM of control hepatocytes (FIG. 8F—compare 1st and 4th bars). As before, the CM of TAZ-silenced hepatocytes suppressed Opn, Timp1 and Col1a1 mRNA in HSCs (FIG. 8G—compare 2nd and 4th bars), and the present results illustrate that restoration of Ihh in these TAZ-silenced cells rescued CM-induced HSC gene expression (FIG. 8G—compare 4th and 5th bars).
AML12 mouse hepatocytes were purchased from ATCC (CRL-2254) and cultured in DMEM/F12 medium (Lifetechnologies, #11320) with 10% FBS (Gibco, #16140-071). Hepatic stellate cells (HSCs) were isolated from 5-6 mo/o BALB/C mice as described previously (Mederacke et al., 2015). […] For quantification of Ihh, hepatocyte conditioned medium was concentrated 10-fold by centrifugal filters (Millipore, Ultracel) and analyzed by an ELISA kit (LifeSpan Biosciences, F7953). […]

[3] = system: primary murine hepatic stellate cells (HSCs); assay: Conditioned medium transfer from silenced AML12 hepatocytes to primary hepatic stellate cells; assay type: cell-based, mouse; conditions: CM from TAZ-silenced vs control hepatocytes, 72 h
Excerpt: To explore the possibility that TAZ-induced Ihh is secreted by hepatocytes and activates HSCs, an in vitro model using AML12 cells, a non-cancerous mouse hepatocyte cell line was utilized (Dumenco et al., 1995), along with primary murine HSCs. Consistent with the in vivo data, siTaz treatment of AML12 hepatocytes lowered cellular Ihh mRNA in the cells and Ihh protein in both the cells and media (FIGS. 8A-C). In the next experiments, conditioned medium (CM) from control or Taz-silenced AML12 cells was utilized, as well as medium not exposed to cells (non-CM), to primary murine hepatic stellate cells (HSCs). […] Finally, to make a more direct link between TAZ-induced Ihh in hepatocytes and activation of HSCs, Ihh was restored in siTaz-treated hepatocytes by Ihh transfection and then analyzed to determine whether this lessened the suppressive effect of CM from these cells on the expression of the fibrosis-related genes in HSCs. […]
AML12 mouse hepatocytes were purchased from ATCC (CRL-2254) and cultured in DMEM/F12 medium (Lifetechnologies, #11320) with 10% FBS (Gibco, #16140-071). […] For quantification of Ihh, hepatocyte conditioned medium was concentrated 10-fold by centrifugal filters (Millipore, Ultracel) and analyzed by an ELISA kit (LifeSpan Biosciences, F7953).

Substance: Inclisiran
- toxicity profile [1]: very low toxicity profiles

Substance: siTaz: siRNA against mouse Taz purchased from IDT; target sequence ACAUGGACGAGAUGGAUACAGGUGA (sense ACAUGGACGAGAUGGAUACAGGUGA; purchased from IDT, chemistry not given here; the letters are possibly those of the target site)
- cellular Ihh mRNA [2]: lowered
- Ihh protein in the media ([2]; ELISA): lowered
- Ihh protein in the cells ([2]; immunoblot): lowered
- Opn, Timp1 and Col1a1 mRNAs and protein in HSCs [3]: lowered
